Laboratory results reported in paper PMC2805716, “Critical Structural and Functional Roles for the N-Terminal Insertion Sequence in Surfactant Protein B Analogs” (PLoS ONE, 2010).
Where a SMILES comes first, the peptide text is derived from it. Bridges are numbered along the chain shown (N, C = ends). Where no end group is shown, it is not given here.

What was measured:
[1] = target: T1, chip-linked Cys-MB (Homo sapiens, UniProt P07988, DEL226-262); assay: SPR binding to chip-linked Cys-MB; details: HBS-EP buffer pH 7.4 with 0.005% P20, 37°C, 1 µg peptide/ml, mean; for koff / kon: 50 µl/min
T1 construct: made in house; host or cells: chemical solid-phase peptide synthesis (Fmoc), no expression host
Procedure: (§1) The respective binding affinities of S-MB and MB, both to themselves (self-association) and to each other (cross-association), were measured with surface plasmon resonance (SPR) spectroscopy using a Biacore 3000 system (Biacore, Uppsala, Sweden), [59]. S-MB and MB, each with a cysteine added to its N-terminus, were chemically linked to a thiol Biacore chip (BR-1000-14, research grade, containing a carboxymethylated dextran matrix covalently attached to a gold film). Solutions of peptide in HBS-EP buffer (i.e., 10 mM Hepes, pH 7.4, 150 mM NaCl, 3 mM EDTA, 0.005% surfactant P20) were then flowed over the chip-linked peptide at a flow rate of 50 µl/min to determine binding affinity at 37°C. Assessment of peptide binding was determined with sensorgrams, in which the arbitrary response units (RU) were plotted as a function of time. Binding associated with control medium containing no peptide was subtracted from final affinity curves, and mean “on” and “off” rate constants (kon and koff) and the dissociation equilibrium constant (KD = koff/kon) were calculated using BIAevaluation Software Version 4.1 based on curve fitting form measurements at 1 µg peptide/ml buffer concentration. The sensor surface was regenerated using 10 mM HCl between sample injections.

[2] = target: T2, chip-linked Cys-S-MB (Homo sapiens, UniProt P07988, DEL226-262); assay: SPR binding to chip-linked Cys-S-MB; details: HBS-EP buffer pH 7.4 with 0.005% P20, 37°C, 50 µl/min, 1 µg peptide/ml; mean
T2 construct: made in house; host or cells: chemical solid-phase peptide synthesis (Fmoc), no expression host
T2 sequence (P07988 with tags, fused parts or gaps DEL226-262): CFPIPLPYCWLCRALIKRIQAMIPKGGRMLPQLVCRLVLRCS
Procedure: as §1

[3] = FTIR, methanol; ref [30]; cited from earlier work
Text: Although the “10 nsec” MD simulation of dimer S-MB provides a reasonable framework to account for our SDS-PAGE and SPR results (Figs. 8 and 10), it is worthwhile to consider other structural models by which the N-terminal insertion sequence may promote the self-association of S-MB. One possible alternative is that oligomeric S-MB may be due to the N-terminal sequence (residues 1-7) forming β-sheet. The N-terminal SP-B(1–9) (Fig. 2) was earlier proposed to act as a ‘biochemical Velcro®,’ facilitating in vivo either the aggregation of SP-B or the interactions of SP-B with SP-C [50]. In support ...

[4] = target: T3, Cys-MB (Mini-B with a cysteine added to its N-terminus, chip-linked) (human); assay: SPR; Biacore 3000; Cys-MB or Cys-S-MB linked to a thiol chip; MB or S-MB at 1 µg peptide/ml in HBS-EP (10 mM Hepes, pH 7.4, 150 mM NaCl, 3 mM EDTA, 0.005% surfactant P20) flowed over at 50 µl/min, 37°C; constants from curve fitting at the one concentration; details: both partners purified
T3 construct: cysteine added to the N-terminus to link the peptide to the thiol Biacore chip; surfactant protein B (SP-B), human, residues 8-25; numbers count on: the mature protein (79 residues); surfactant protein B (SP-B), human, residues 63-78; Immobilised on the SPR chip; also called chipped MB; N-terminal Cys-MB
T3 chain: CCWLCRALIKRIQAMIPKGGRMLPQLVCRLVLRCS

[5] = target: T4, Cys-S-MB (Super Mini-B with a cysteine added to its N-terminus, chip-linked) (human); assay: as above; details: both partners purified
T4 construct: cysteine added to the N-terminus to link the peptide to the thiol Biacore chip; surfactant protein B (SP-B), human, residues 1-25; numbers count on: the mature protein (79 residues); surfactant protein B (SP-B), human, residues 63-78; Immobilised on the SPR chip; also called chipped S-MB; N-terminal Cys-S-MB
T4 chain: T2 sequence (P07988 with tags, fused parts or gaps DEL226-262)

## FPIPLPYCWLCRALIKRIQAMIPKGGRMLPQLVCRLVLRCS (disulfide 8-40, 11-34) [S-MB]
[1]
  koff: 0.00736 s⁻¹
  kon: 141000 M⁻¹ s⁻¹
[2]
  koff: 0.000901 s⁻¹
  kon: 44700 M⁻¹ s⁻¹

## CC[C@H](C)[C@@H]1NC(=O)[C@H](CCCNC(=N)N)NC(=O)[C@H](CCCCN)NC(=O)[C@H]([C@@H](C)CC)NC(=O)[C@H](CC(C)C)NC(=O)[C@H](C)NC(=O)[C@H](CCCNC(=N)N)NC(=O)[C@@H]2CSSC[C@H](NC(=O)[C@H](C(C)C)NC(=O)[C@H](CC(C)C)NC(=O)[C@H](CCC(N)=O)NC(=O)[C@@H]3CCCN3C(=O)[C@H](CC(C)C)NC(=O)[C@H](CCSC)NC(=O)[C@H](CCCNC(=N)N)NC(=O)CNC(=O)CNC(=O)[C@H](CCCCN)NC(=O)[C@@H]3CCCN3C(=O)[C@H]([C@@H](C)CC)NC(=O)[C@H](CCSC)NC(=O)[C@H](C)NC(=O)[C@H](CCC(N)=O)NC1=O)C(=O)N[C@@H](CCCNC(=N)N)C(=O)N[C@@H](CC(C)C)C(=O)N[C@@H](C(C)C)C(=O)N[C@@H](CC(C)C)C(=O)N[C@@H](CCCNC(=N)N)C(=O)N[C@H](C(=O)N[C@@H](CO)C(=O)O)CSSC[C@H](N)C(=O)N[C@@H](Cc1c[nH]c3ccccc13)C(=O)N[C@@H](CC(C)C)C(=O)N2 [MB] (H-CWLCRALIKRIQAMIPKGGRMLPQLVCRLVLRCS-OH; disulfide 1-33, 4-27)
[1]
  koff: 0.0168 s⁻¹
  kon: 91900 M⁻¹ s⁻¹
[1]; KD = koff/kon
  Kd: 183 nM
[2]
  koff: 0.00806 s⁻¹
  kon: 200000 M⁻¹ s⁻¹

## SP-B(1–9): N-terminal SP-B(1–9) peptide (FPIPLPYCW; Pulmonary surfactant-associated protein B; UniProt P07988 201-209, looked up, fragment)
[3]
  β-sheet content: 26.3%
  β-sheet content in residues: ~2.4 residues

B1: Mini-B (peptide)
chain: CWLCRALIKRIQAMIPKGGRMLPQLVCRLVLRCS
notes: surfactant protein B (SP-B), human, residues 8-25 (N-terminal helix region); numbers count on: the mature protein (79 residues); surfactant protein B (SP-B), human, residues 63-78 (C-terminal helix region); Oxidised form with intramolecular disulfides Cys-8 to Cys-40 and Cys-11 to Cys-34 (S-MB numbering); also called MB; source: synthetic peptide (Fmoc solid phase, HPLC-purified, air-oxidised)
[4]
  Kd: 183 nM
  koff: 0.0168 s⁻¹
  kon: 91900 M⁻¹ s⁻¹
[5]
  Kd: 40.4 nM
  koff: 0.00806 s⁻¹
  kon: 200000 M⁻¹ s⁻¹
